Measured values reported in patent US20220125051A1, “PRE-HARVEST DESICCATION METHOD” (SYNGENTA CROP PROTECTION AG, priority 2019, published 2022).
Read-outs that look alike come from different tables or passages of the source.

How the values were obtained:
Test in all cases: Post-emergence efficacy, Method A
Format in all cases: in vivo
Lolium perenne (LOLPE) = details: Lolium perenne, post-emergence, 312 h, evaluated after 13 days
Description: (§1) Seeds of a variety of test species were sown in standard soil in pots. After cultivation for 14 days (post-emergence) under controlled conditions in a glasshouse (at 24/16° C., day/night; 14 hours light; 65% humidity), the plants were sprayed with an aqueous spray solution derived from the dissolution of the technical active ingredient formula (I) in a small amount of acetone and a special solvent and emulsifier mixture referred to as IF50 (11.12% Emulsogen EL360 TM+44.44% N-methylpyrrolidone+44.44% Dowanol DPM glycol ether), to create a 50 g/I solution which was then diluted to required concentration using 0.25% or 1% Empicol ESC70 (Sodium lauryl ether sulphate)+1% ammonium sulphate as diluent. The test plants were then grown in a glasshouse under controlled conditions (at 24/16° C., day/night; 14 hours light; 65% humidity) and watered twice daily. After 13 days the test was evaluated (100=total damage to plant; 0=no damage to plant).
(§2) Ipomoea hederacea (IPOHE), Euphorbia heterophylla (EPHHL), Chenopodium album (CHEAL), Amaranthus palmeri (AMAPA), Lolium perenne (LOLPE), Digitaria sanguinalis (DIGSA), Eleusine indica (ELEIN), Echinochloa crus-galli (ECHCG), Setaria faberi (SETFA)

Eleusine indica (ELEIN) = details: Eleusine indica, post-emergence, 312 h, evaluated after 13 days
Description: as §1, §2

[1] = system: Ipomoea hederacea (IPOHE); details: Ipomoea hederacea, post-emergence, 312 h, evaluated after 13 days
Description: as §1, §2

[2] = system: Echinochloa crus-galli (ECHCG); details: Echinochloa crus-galli, post-emergence, 312 h, evaluated after 13 days
Description: as §1, §2

[3] = system: Euphorbia heterophylla (EPHHL); details: Euphorbia heterophylla, post-emergence, 312 h, evaluated after 13 days
Description: as §1, §2

[4] = system: Digitaria sanguinalis (DIGSA); details: Digitaria sanguinalis, post-emergence, 312 h, evaluated after 13 days
Description: as §1, §2

[5] = system: Amaranthus palmeri (AMAPA); details: Amaranthus palmeri, post-emergence, 312 h, evaluated after 13 days
Description: as §1, §2

Setaria faberi (SETFA) = details: Setaria faberi, post-emergence, 312 h; Application rate 500 g/Ha; evaluated after 13 days; 100=total damage to plant, 0=no damage to plant; read-out: Control of weed species after post-emergence application, SETFA
Description: as §1, §2

[6] = system: Chenopodium album (CHEAL); details: Chenopodium album, post-emergence, 312 h, evaluated after 13 days
Description: as §1, §2

[7] = Application rate 500 g/Ha, 100=total damage to plant, 0=no damage to plant, read-out: Control of weed species after post-emergence application, LOLPE
[8] = Application rate 500 g/Ha, 100=total damage to plant, 0=no damage to plant, read-out: Control of weed species after post-emergence application, ELEIN
[9] = Application rate 500 g/Ha, 100=total damage to plant, 0=no damage to plant, read-out: Control of weed species after post-emergence application, IPOHE
[10] = Application rate 500 g/Ha, 100=total damage to plant, 0=no damage to plant, read-out: Control of weed species after post-emergence application, ECHCG
[11] = Application rate 500 g/Ha, 100=total damage to plant, 0=no damage to plant, read-out: Control of weed species after post-emergence application, EPHHL
[12] = Application rate 500 g/Ha, 100=total damage to plant, 0=no damage to plant, read-out: Control of weed species after post-emergence application, DIGSA
[13] = Application rate 500 g/Ha, 100=total damage to plant, 0=no damage to plant, read-out: Control of weed species after post-emergence application, CHEAL

Row | SMILES | pest or weed control at 500 g/ha (Lolium perenne (LOLPE); [7]) [%] | pest or weed control at 500 g/ha (Eleusine indica (ELEIN); [8]) [%] | pest or weed control at 500 g/ha [1, 9] [%] | pest or weed control at 500 g/ha [2, 10] [%] | pest or weed control at 500 g/ha [3, 11] [%] | pest or weed control at 500 g/ha [4, 12] [%] | pest or weed control at 500 g/ha ([5]; Application rate 500 g/Ha, 100=total damage to plant, 0=no damage to plant, read-out: Control of weed species after post-emergence application, AMAPA) [%] | pest or weed control at 500 g/ha (Setaria faberi (SETFA)) [%] | pest or weed control at 500 g/ha [6, 13] [%] | pest or weed control at 500 g/ha (Lolium perenne (LOLPE); Application Rate 500 g/Ha, Method A, read-out: Control of weed species after post-emergence application, LOLPE (100=total damage to plant; 0=no damage to plant)) [%] | pest or weed control at 500 g/ha (Eleusine indica (ELEIN); Application Rate 500 g/Ha, Method A, read-out: Control of weed species after post-emergence application, ELEIN (100=total damage to plant; 0=no damage to plant)) [%] | pest or weed control at 500 g/ha ([1]; Application Rate 500 g/Ha, Method A, read-out: Control of weed species after post-emergence application, IPOHE (100=total damage to plant; 0=no damage to plant)) [%] | pest or weed control at 500 g/ha ([2]; Application Rate 500 g/Ha, Method A, read-out: Control of weed species after post-emergence application, ECHCG (100=total damage to plant; 0=no damage to plant)) [%] | pest or weed control at 500 g/ha ([3]; Application Rate 500 g/Ha, Method A, read-out: Control of weed species after post-emergence application, EPHHL (100=total damage to plant; 0=no damage to plant)) [%] | pest or weed control at 500 g/ha ([4]; Application Rate 500 g/Ha, Method A, read-out: Control of weed species after post-emergence application, DIGSA (100=total damage to plant; 0=no damage to plant)) [%] | pest or weed control at 500 g/ha ([5]; Application Rate 500 g/Ha, Method A, read-out: Control of weed species after post-emergence application, AMAPA (100=total damage to plant; 0=no damage to plant)) [%] | pest or weed control at 500 g/ha ([6]; Application Rate 500 g/Ha, Method A, read-out: Control of weed species after post-emergence application, CHEAL (100=total damage to plant; 0=no damage to plant)) [%]
1 | O=C([O-])CC[n+]1ccc(-c2ncccc2F)cn1 [Compound A67] | 40 | 70 | 20 | 80 | 80 | 60 | 60 | 70 | 50 |  |  |  |  |  |  |  | 
2 | CN(C)c1ccnc(-c2cc[n+](CCC(=O)[O-])nc2)n1 [Compound A45] | 30 | 80 | 20 | 90 | 50 | 80 |  | 100 | 60 |  |  |  |  |  |  |  | 
3 | Cc1cc(C)nc(-c2cc[n+](CCS(=O)(=O)[O-])nc2)n1 [Compound A48] | 70 | 100 | 20 | 70 | 90 | 90 |  | 100 | 100 |  |  |  |  |  |  |  | 
4 | O=S(=O)([O-])CCC[n+]1ccc(-c2ccc(O)nn2)cn1 [Compound A52] | 10 | 70 | 20 | 60 | 60 | 70 |  | 70 | 60 |  |  |  |  |  |  |  | 
5 | O=S(=O)([O-])CC[n+]1ccc(-c2nccc(C(F)(F)F)n2)cn1 [Compound A23] | 70 | 100 | 60 | 70 | 90 | 80 |  | 100 | 80 |  |  |  |  |  |  |  | 
6 | Cc1cnc(-c2cc[n+](CCS(=O)(=O)[O-])nc2)cn1 [Compound A61] | 70 | 100 | 50 | 90 | 90 | 100 |  | 100 | 80 |  |  |  |  |  |  |  | 
7 | O=S(=O)([O-])CCC[n+]1ccc(-c2ccnc(Cl)n2)cn1 [Compound A53] | 40 | 70 | 70 | 70 | 80 | 80 |  | 80 | 100 |  |  |  |  |  |  |  | 
8 | O=c1cc(-c2cc[n+](CCS(=O)(=O)[O-])nc2)nc[nH]1 [Compound A57] | 10 | 40 | 10 | 40 | 60 | 80 |  | 60 | 60 |  |  |  |  |  |  |  | 
9 | CS(=O)(=O)c1cnc(-c2cc[n+](CCS(=O)(=O)[O-])nc2)nc1 [Compound A15] | 10 | 80 | 10 | 40 | 20 | 60 |  | 50 | 90 |  |  |  |  |  |  |  | 
10 | CN(C)c1cnc(-c2cc[n+](CCS(=O)(=O)[O-])nc2)nc1 [Compound A18] | 10 | 60 | 10 | 30 | 10 | 50 |  | 40 | 0 |  |  |  |  |  |  |  | 
11 | O=C([O-])CC[n+]1ccc(-c2ncc(Cl)cn2)cn1 [Compound A43] | 20 | 100 | 30 | 70 | 80 | 90 |  | 100 | 90 |  |  |  |  |  |  |  | 
12 | COc1cc(OC)nc(-c2cc[n+](CCS(=O)(=O)[O-])nc2)n1 [Compound A32] | 30 | 100 | 40 | 70 | 70 | 90 |  | 80 | 70 |  |  |  |  |  |  |  | 
13 | Nc1cc(-c2cc[n+](CCC(=O)O)nc2)ncn1 [Compound A163] |  |  |  |  |  |  |  |  |  | 70 | 90 | 30 | 40 | 50 | 50 | 100 | 60
14 | Cc1nccc(-c2cc[n+](CCC(=O)O)nc2)n1 [Compound A55] | 60 | 100 | 70 | 90 | 70 | 100 |  | 100 | 80 |  |  |  |  |  |  |  | 
15 | O=C([O-])CC[n+]1ccc(-c2ncc(C3CC3)cn2)cn1 [Compound A51] | 60 | 90 | 20 | 60 | 30 | 90 |  | 70 | 70 |  |  |  |  |  |  |  | 
16 | COc1nccc(-c2cc[n+](CCS(=O)(=O)[O-])nc2)n1 [Compound A60] | 70 | 100 | 60 | 90 | 70 | 100 |  | 90 | 100 |  |  |  |  |  |  |  | 
